Assay results from patent US12077503B2, “Substituted cyclic amides and their use as herbicides” (FMC CORPORATION, priority 2015, dated 2024).

Legend:
Assay type in all cases: in vivo
[1] = test system: ryegrass, Italian (Italian ryegrass, Lolium multiflorum); test: Test A postemergence; conditions: Lolium multiflorum, post-emergence, 240 h, postemergence, read-out: Ryegrass, Italian plant response rating
How it was run: (§1)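 In a loam soil and sand blend, planted seeds got a preemergence directed soil spray, and young plants at the one- to two-leaf stage, 2–10 cm high, got a postemergence application; ~10 d greenhouse hold; injury rated visually, 0 = none, 100 = complete control.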

[2] = test system: corn (Zea mays); test: Test A postemergence; conditions: Zea mays, post-emergence, 240 h, postemergence, read-out: Corn plant response rating
How it was run: as §1

[3] = test system: giant foxtail (Setaria faberii); test: Test A postemergence; conditions: Setaria faberi, post-emergence, 240 h, postemergence, read-out: Foxtail, Giant plant response rating
How it was run: as §1

[4] = test system: wheat (Triticum aestivum); test: Test A postemergence; conditions: Triticum aestivum, post-emergence, 240 h, postemergence, read-out: Wheat plant response rating
How it was run: as §1

[5] = test system: barnyardgrass (Echinochloa crus-galli); test: Test A postemergence; conditions: Echinochloa crus-galli, post-emergence, 240 h, postemergence, read-out: Barnyardgrass plant response rating
How it was run: as §1

[6] = test system: pigweed (Amaranthus retroflexus); test: Test A postemergence; conditions: Amaranthus retroflexus, post-emergence, 240 h, postemergence, read-out: Pigweed plant response rating
How it was run: as §1

[7] = test system: blackgrass (Alopecurus myosuroides); test: Test A postemergence; conditions: Alopecurus myosuroides, post-emergence, 240 h, postemergence, read-out: Blackgrass plant response rating
How it was run: as §1

[8] = test system: Kochia (Kochia scoparia); test: Test A postemergence; conditions: Bassia scoparia, post-emergence, 240 h, postemergence, read-out: Kochia plant response rating
How it was run: as §1

[9] = test system: Galium (catchweed bedstraw, Galium aparine); test: Test A postemergence; conditions: Galium, post-emergence, 240 h, postemergence, read-out: Galium plant response rating
How it was run: as §1

[10] = test system: ragweed (common ragweed, Ambrosia elatior); test: Test A postemergence; conditions: Ambrosia artemisiifolia, post-emergence, 240 h, postemergence, read-out: Ragweed plant response rating
How it was run: as §1

[11] = test system: rice (Oryra sativa); test: Test B flooded paddy test; conditions: Oryza sativa, 250 g ai/ha, Flood; 0 to 100 scale where 0 is no effect and 100 is complete control; read-out: Rice plant response rating
How it was run: (§2)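 Plants at 2-leaf stage flooded to 3 cm above soil, with compounds applied directly to paddy water and that depth maintained. Plants kept in greenhouse 13–15 d. Visual rating versus controls on a 0 (no effect) to 100 (complete control) scale.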

[12] = test system: sedge, umbrella (small-flower umbrella sedge, Cyperus difformis); test: Test B flooded paddy test; conditions: Cyperus difformis, 250 g ai/ha, Flood; 0 to 100 scale where 0 is no effect and 100 is complete control; read-out: Sedge, Umbrella plant response rating
How it was run: as §2

[13] = test system: barnyardgrass (Echinochloa crus-galli); test: Test B flooded paddy test; conditions: Echinochloa crus-galli, 250 g ai/ha, Flood; 0 to 100 scale where 0 is no effect and 100 is complete control; read-out: Barnyardgrass plant response rating
How it was run: as §2

[14] = test system: ducksalad (Heteranthera limosa); test: Test B flooded paddy test; conditions: Heteranthera limosa, 250 g ai/ha, Flood; 0 to 100 scale where 0 is no effect and 100 is complete control; read-out: Ducksalad plant response rating
How it was run: as §2

[15] = test system: pigweed (Amaranthus retroflexus); test: Test A preemergence; conditions: Amaranthus retroflexus, pre-emergence, 240 h, preemergence, 0 to 100 scale where 0 is no effect and 100 is complete control, read-out: Pigweed plant response rating
[16] = 125 g ai/ha, visual injury on 0 to 100 scale (0 no effect, 100 complete control), approx. 10 d
[17] = 500 g ai/ha, 0 to 100 scale, 0 is no effect, 100 is complete control

## CN1C[C@H](c2ccc3c(c2)OCO3)[C@@H](C(=O)Nc2cccc(F)c2F)C1=O [Compound 1126]
[1]; [16]
  pest or weed control at 125 g/ha: 30%
[1]; [17]
  pest or weed control at 500 g/ha: 50%
[2]; [16]
  plant injury at 125 g/ha: 60%
[2]; [17]
  plant injury at 500 g/ha: 90%
[3]; [16]
  pest or weed control at 125 g/ha: 80%
[3]; [17]
  pest or weed control at 500 g/ha: 90%
[4]; [16]
  plant injury at 125 g/ha: 50%
[4]; [17]
  plant injury at 500 g/ha: 70%
[5]; [16]
  pest or weed control at 125 g/ha: 90%
[5]; [17]
  pest or weed control at 500 g/ha: 90%
[6]; [16]
  pest or weed control at 125 g/ha: 0%
[6]; [17]
  pest or weed control at 500 g/ha: 30%
[7]; [16]
  pest or weed control at 125 g/ha: 20%
[7]; [17]
  pest or weed control at 500 g/ha: 40%
[8]; [16]
  pest or weed control at 125 g/ha: 50%
[8]; [17]
  pest or weed control at 500 g/ha: 70%
[9]; [16]
  pest or weed control at 125 g/ha: 50%
[9]; [17]
  pest or weed control at 500 g/ha: 40%
[10]; [16]
  pest or weed control at 125 g/ha: 40%
[10]; [17]
  pest or weed control at 500 g/ha: 40%
[11]
  pest or weed control at 250 g/ha: 0%
[12]
  pest or weed control at 250 g/ha: 0%
[13]
  pest or weed control at 250 g/ha: 75%
[14]
  pest or weed control at 250 g/ha: 100%
[15]; 125 g ai/ha, approx. 10 d
  pest or weed control at 125 g/ha: 30%
[15]; 500 g ai/ha
  pest or weed control at 500 g/ha: 60%
